From US20030082101A1, “Accelerators for increasing the rate of formation of free radicals and reactive oxygen species” (Cavalier Discovery, priority 2001, published 2003) come the findings set out here.

Common to all, as to type: biochemical
For assay [1], the system named is ferritin. Briefly: Release of iron from ferritin assay, additives, ultrasound (Example 10). To be noted: 0.2 mg/mL ferritin, pH 7, 15 min. On the procedure:
(§1) The following example uses the release of iron from ferritin assay to show the effect of additives on the release of iron from ferritin during ultrasound exposure. All solutions were prepared in pH 7 acetic acid solution containing approximately 0.2 mg/mL ferritin and 1 mM ferrozine, and the concentration of 1,4-quinone indicated in the table below. Solutions were sonicated at 30 W, 2 MHz, 32-34 degrees Celsius for fifteen minutes using a PZT-8 1.8 cm diameter custom transducer. The sonicated solution was placed on an orbit shaker rotating at 25 RPM to ensure even sonication of the solution while the transducer was held stationary. Control solutions were placed in a controlled temperature bath at 32-34 degrees Celsius without sonication. After 15 minutes of treatment, an aliquot was tested for the presence of the iron-ferrozine chelate via absorbance at 562 nm. The amount of iron released was determined using the control solution corrected absorbance (subtract the absorbance of the control solution from the absorbance of the ultrasound solution). The corrected absorbance was compared to a ferrozine-iron standard curve to determine the enhanced iron release due to ultrasound exposure. The enhanced iron release due to ultrasound exposure in the presence of the additive was compared to the amount of enhanced iron release due to ultrasound exposure in the absence of any additives as follows: [formula]

For assay [2], the system named is ferritin. Briefly: Release of iron from ferritin assay, naphthoquinones, ultrasound (Example 8). To be noted: iron release vs ultrasound without additive, 0.2 mg/mL ferritin, pH 7, 15 min. As for the experimental part:
as §1, with “of naphthoquinones” for “of additives”, “of naphthoquinone” for “of 1,4-quinone”, “the amount of” for “the enhanced”, “iron released.” for “iron release due to ultrasound exposure.”, “the naphthoquinone” for “the additive”

The test system of assay [3] is deoxyribose. Nature of the assay: TBARS assay, chelants 0.07-0.11 mM during ultrasound exposure, ferrous iron (Example 3). To be noted: 0.025 mM ferrous iron, 0.07-0.11 mM chelant, 0.01% hydrogen peroxide, pH 7.5, 30 W 2 MHz 10 min. As for the experimental part:
(§2) The following example uses the thiobarbituric acid-reactive substances (TBARS) assay to identify chelants that enhance radical production during ultrasound exposure. All solutions were prepared in pH 7.5 phosphate buffer containing approximately 2 mM deoxyribose, 0.01% hydrogen peroxide, 0.025 mM ferrous iron, and 0.07-0.11 mM chelant. Solutions were sonicated at 30 W, 2 MHz, 32-34 degrees Celsius for ten minutes using a PZT-8 1.8 cm diameter custom transducer. The sonicated solution was placed on an orbit shaker rotating at 25 RPM to ensure even sonication of the solution while the transducer was held stationary. Control solutions were placed in a controlled temperature bath at 32-34 degrees Celsius without sonication. After 10 minutes of treatment, 1 mL test solution was placed in a test tube followed by 2 mL of 1% 2-thiobarbituric acid and 2 mL of 2.8% trichloroacetic acid. The test tube was sealed and heated to 90 degrees Celsius for 30 minutes and allowed to cool to room temperature for 20 minutes. The absorbance at 532 nm was measured. The enhanced radical production during ultrasound exposure was determined by comparing the amount of deoxyribose degradation that occurs in the sonicated solution versus the control solution using the following equation: [formula]

For assay [4], the system named is deoxyribose. Nature of the assay: TBARS assay, chelants 0.07-0.11 mM during ultrasound exposure, ferric iron (Example 4). As to conditions: 0.02-0.03 mM ferric iron, 0.07-0.11 mM chelant, 0.01% hydrogen peroxide, pH 7.5, 30 W 2 MHz 10 min. On the procedure:
as §2, with “0.02-0.03” for “0.025”, “ferric” for “ferrous”

A short description of assay [5]: Free radical production when exposed to ultrasound and a metal (statements in the description). As to conditions: when exposed to ultrasound and a metal.
For assay [6], the system named is ferritin. Nature of the assay: Release of iron from ferritin assay, anthraquinones, ultrasound (Example 9). To be noted: 0.2 mg/mL ferritin, pH 7.5, 15 min.
Experimental: All solutions are prepared in pH 7.5 phosphate buffer containing approximately 0.2 mg/mL ferritin and 1 mM ferrozine, and the concentration of anthraquinone indicated in the table below. Solutions are sonicated at 30 W, 2 MHz, 32-34 degrees Celsius for fifteen minutes using a PZT-8 1.8 cm diameter custom transducer. The sonicated solution is placed on an orbit shaker rotating at 25 RPM to ensure even sonication of the solution while the transducer is held stationary. Control solutions are placed in a controlled temperature bath at 32-34 degrees Celsius without sonication. After 15 minutes of treatment, an aliquot is tested for the presence of the iron-ferrozine chelate via absorbance at 562 nm. The amount of iron released is determined using the control solution corrected absorbance (subtract the absorbance of the control solution from the absorbance of the ultrasound solution). The corrected absorbance is compared to a ferrozine-iron standard curve to determine the amount of iron released.
Assay [7] relates to deoxyribose. Briefly: TBARS assay, metals that enhance radical production during ultrasound (Example 6). On the procedure: as §2, with “metals” for “chelants”, “ultrasound.” for “ultrasound exposure.”, “peroxide,” for “peroxide, 0.025 mM ferrous iron,”, “the additives indicated in the table below.” for “0.07-0.11 mM chelant.”

For `O=C1C=CC(=O)C=C1` [1,4 benzoquinone], the “% Ultrasound Mediated Activity” value in the assay with ferritin [1] (concentration not given) was determined as 0%.
As to `CC(C)=CCC1=C(O)C(=O)c2ccccc2C1=O` [2-hydroxy-3-(3-methyl-2-butenyl)-1,4-naphthoquinone], in the assay on ferritin [2] (15 uM additive), the “% Ultrasound Mediated Activity” value stood at 72%.
On to `CC1=CC(=O)c2ccccc2C1=O` [2-methyl-1,4-naphthoquinone (menadione), 2-methyl-1,4-naphthoquinone], for which the “% Ultrasound Mediated Activity” value in the assay with ferritin [2] (18 uM additive) is listed as 5.3%.
On to `O=S(=O)(O)c1ccc(-c2nnc(-c3ccccn3)nc2-c2ccc(S(=O)(=O)O)o2)o1` [3-(2-Pyridyl)-5,6-bis(5-sulfo-2-furyl)-1,2,4-triazine], for which the “% Ultrasound Mediated Activity vs Control” value is given as 50% in the assay on deoxyribose [3] and 207% with deoxyribose [4].
For the compound `O=S(=O)(O)c1ccc(-c2nnc(-c3ccccn3)nc2-c2ccc(S(=O)(=O)O)cc2)cc1` [3-(2-Pyridyl)-5,6-diphenyl-1,2,4-triazine-4,4-disulfonic acid], the “% Ultrasound Mediated Activity vs Control” value amounted to 45% in the assay on deoxyribose [3] and 136% in the assay on deoxyribose [4].
With `O=C1C=CC(=O)c2c(O)ccc(O)c21` [5,8 dihydroxy-1,4-naphthoquinone], in the assay with ferritin [2] (106 uM additive), the “% Ultrasound Mediated Activity” value amounted to 185%.
Take `O=C1C=CC(=O)c2c(O)cccc21` [5-hydroxy-1,4-naphthoquinone (juglone), 5-hydroxy-1,4-naphthoquinone]: the “% Ultrasound Mediated Activity” value in the assay on ferritin [2] (10 uM additive) worked out at 93%.
Take `CC1=CC(=O)c2c(O)cccc2C1=O` [5-hydroxy-2-methyl-1,4-naphthoquinone]: the “% Ultrasound Mediated Activity” value with ferritin [2] (71 uM additive) was determined as 155%.
Consider `Nc1ncnc2c1ncn2[C@@H]1O[C@H](COP(=O)(O)OP(=O)(O)O)[C@@H](O)[C@H]1O` [Adenosine diphosphate (ADP), Adenosine diphosphate], for which the figures for the “% Ultrasound Mediated Activity vs Control” value in the assay with deoxyribose [3] and with deoxyribose [4] were 26% and 280%, respectively. In assay [5], the free radical production entry was “increase free radical production”.
On to `O=C1c2ccccc2C(=O)c2c1cc(S(=O)(=O)O)c(O)c2O` [Alizarin Red S, 3,4-dihydroxy-9,10-dioxo-2-anthracenesulfonic acid], for which the “% Ultrasound Mediated Activity” value with ferritin [6] (0.05 mM additive) is recorded as above 50%.
Take `O=C1c2ccccc2C(=O)c2cc(S(=O)(=O)O)ccc21` [Anthraquinone-2-sulfonic acid]: the “% Ultrasound Mediated Activity” value with ferritin [6] (concentration not given) is reported as below 10%.
With `N[C@@H](CS)C(=O)O` [CYSTEINE], the “% Ultrasound Mediated Activity” value in the assay on ferritin [1] (0.45 mM additive) came to 160%. In addition, the free radical production result in assay [5] was “increase free radical production”.
`Cc1cc(O)c2c(c1)C(=O)c1cccc(O)c1C2=O` [Chrysophanol, 1,8-dihydroxy-3-methylanthraquinone]: the “% Ultrasound Mediated Activity” value with ferritin [6] (0.05 mM additive) is on record as above 50%.
With `O=C(O)CC(O)(CC(=O)O)C(=O)O` [Citrate], the “% Ultrasound Mediated Activity vs Control” value in the assay on deoxyribose [3] is recorded as 31%; in the assay on deoxyribose [4] it was 161%. Moreover, the free radical production entry in assay [5] is on record as “increase free radical production”.
As to `[Cl][Cu][Cl]` [Cupric chloride], the “% Ultrasound Mediated Activity vs Control” value in the assay on deoxyribose [7] (cupric chloride 0.026 mM) is given as 82%.
`O=C(O)/C(O)=C(\O)C(=O)O` [DIHYDROXYFUMARATE]: in the assay on ferritin [1] (0.01 mM additive), the “% Ultrasound Mediated Activity” value is recorded as 72%.
As for `Cc1cc(O)c2c(c1)C(=O)c1cc(O)cc(O)c1C2=O` [Emodin, 6-methyl-1,3,8-trihydroxyanthraquinone], in the assay on ferritin [6] (0.05 mM additive), the “% Ultrasound Mediated Activity” value was above 50%.
Turning to `[Cl][Fe]([Cl])[Cl]` [Ferric iron added as FeCl3, FeCl3], the “% Ultrasound Mediated Activity vs Control” value in the assay on deoxyribose [7] (ferric iron approx 0.1 mM) is 76%.
As for `O=S(=O)([O-])[O-].O=S(=O)([O-])[O-].[Fe+2].[NH4+].[NH4+]` [Ferrous iron added as Fe(NH4)2(SO4)2, Fe(NH4)2(SO4)2], the “% Ultrasound Mediated Activity vs Control” value in the assay on deoxyribose [7] (ferrous iron 0.1 mM) was determined as 12%.
Regarding `CC(C)(S)[C@@H](N)C(=O)O` [PENICILLAMINE], the “% Ultrasound Mediated Activity” value in the assay on ferritin [1] (0.11 mM additive) is reported as 117%. In addition, the free radical production entry in assay [5] is “increase free radical production”.
In the case of `O=C(O)c1ccccn1` [Picolinic Acid], the “% Ultrasound Mediated Activity vs Control” value in the assay on deoxyribose [3] stood at 53%; with deoxyribose [4] it was 175%.
Take `O=C(O)c1cc(O)c2c(c1)C(=O)c1cccc(O)c1C2=O` [Rhein, 9,10-dihydro-4,5-dihydroxy-9,10-dioxo-2-anthracenecarboxylic acid]: the “% Ultrasound Mediated Activity” value in the assay with ferritin [6] (0.05 mM additive) was above 50%.
Take `O=C1C(O)=C(O)C(=O)C(O)=C1O` [Tetrahydroxy 1,4-benzoquinone]: the “% Ultrasound Mediated Activity” value in the assay on ferritin [1] (0.11 mM additive) is recorded as 186%.
Turning to Ferritin, the “% Ultrasound Mediated Activity vs Control” value with deoxyribose [7] (ferritin approx. 0.2 mg/mL) amounted to 6%.
